Experimental data taken from US20250235417A1, “Compositions for acute and chronic wounds” (DEBx Medical Holding B.V., priority 2021, published 2025).

Experiments:
[1] = test system: patients' biofilm; assay: Tests performed on patients' biofilm
[2] = estimated / in the order of; cited from earlier work
[3] = assay type: physicochemical
Excerpt: The pKa and the Ka values are based on literature references, which include: • E. P. Serjeant and B. Dempsey (eds.), Ionization Constants of Organic Acids in Solution, IUPAC Chemical Data Series No. 23, Pergamon Press, Oxford, UK, 1979; • Part of Journal of Research of the National Bureau of Standards. Volume 31, December 1943, pH VALUES OF ACID.SALT MIXTURES OF SOME AROMATIC SULFONIC ACIDS AT VARIOUS TEMPERATURES AND A CRITERION OF COMPLETENESS OF DISSOCIATION, By Walter j. Hamer. Gladys D. Pinching, and S. F. Acree; • Guthrie, J. P. Hydrolysis of esters of oxy acids: pKa values for strong acids. Can. J. Chem. 1978, 56, 2342-2354;

| acid form remaining undissociated upon contact with the biofilm [3] | Structure (SMILES) | antimicrobial activity [1] | acid dissociation constant, Ka [2] |
| --- | --- | --- | --- |
|  | Cc1cccc(S(=O)(=O)O)c1 [3-methylbenzenesulphonic acid] | considerable antimicrobial activity | ~600 |
|  | CCc1ccc(S(=O)(=O)O)cc1 [4-Ethylbenzenesulphonic acid] | considerable antimicrobial activity | ~600 |
| about 57% | CCCCCCCCCCCCc1ccc(S(=O)(=O)O)cc1 [4-dodecylbenzenesulphonic acid] |  | 2-3 |
